Laboratory results as given in PubChem BioAssay (NCI).
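Following 48 hours of exposure in 96-well plates, responses at five concentrations were used to interpolate endpoints linearly. GI50 is the concentration that inhibits growth by half. TGI marks complete inhibition of growth.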

What was measured:
Assay in all cases: inhibition of tumour cell growth, NCI panel, 48 h
M14 melanoma = test system: M14 melanoma
OVCAR-3 ovarian = test system: OVCAR-3 ovarian
TK-10 renal = test system: TK-10 renal
EKVX NSCLC = test system: EKVX NSCLC
MALME-3M melanoma = test system: MALME-3M melanoma
LOX IMVI melanoma = test system: LOX IMVI melanoma
HOP-92 NSCLC = test system: HOP-92 NSCLC
RPMI-8226 leukemia = test system: RPMI-8226 leukemia
HL-60(TB) leukemia = test system: HL-60(TB) leukemia
NCI-H522 lung = test system: NCI-H522 lung

Structure (SMILES)	TGI (M14 melanoma) [µM]	TGI (OVCAR-3 ovarian) [µM]	TGI (TK-10 renal) [µM]	TGI (EKVX NSCLC) [µM]	TGI (MALME-3M melanoma) [µM]	TGI (LOX IMVI melanoma) [µM]	TGI (HOP-92 NSCLC) [µM]	TGI (RPMI-8226 leukemia) [µM]	TGI (HL-60(TB) leukemia) [µM]	GI50 (OVCAR-3 ovarian) [µM]	GI50 (TK-10 renal) [µM]	GI50 (EKVX NSCLC) [µM]	GI50 (MALME-3M melanoma) [µM]	GI50 (NCI-H522 lung) [µM]	TGI (NCI-H522 lung) [µM]	GI50 (LOX IMVI melanoma) [µM]	GI50 (HOP-92 NSCLC) [µM]	GI50 (RPMI-8226 leukemia) [µM]	GI50 (HL-60(TB) leukemia) [µM]	GI50 (M14 melanoma) [µM]
N#Cc1ccc(/C=N\N2C(=O)c3ccccc3C2=O)cc1	> 100	> 100	> 100	> 100	> 100	> 100	> 100	> 100	> 100											
CN(CCCCCl)P(=O)(OCc1ccc([N+](=O)[O-])o1)C(F)(F)c1ccc(CC(=O)N[C@@H](CC(=O)O)C(=O)N[C@@H](Cc2ccc(C(F)(F)P(=O)(OCc3ccc([N+](=O)[O-])o3)N(C)CCCCCl)cc2)C(N)=O)cc1 (some centres undefined)		> 100	> 100	> 100	> 100	> 100	52.3	71.9	64.5	37.6	76.1	67.7	> 100	35.7	> 100	28.2	22.5	25.5	28	
Nc1ncnc2c1c(-c1cccc(OCc3ccccc3)c1)cn2C1CC(CN2CCCC2)C1 (centres undefined)	3.2	14.9	5.05		5.7	3	0.867	5.4	3.03	4.06	1.84		2.06	1.95	3.73	1.52	0.0749	1.94	0.426	1.61
Cn1cc(C2=C(c3c4n(c5ccccc35)CC(CN)C4)C(=O)NC2=O)c2ccccc21 (centres undefined)	7.33	9.35	8.07		8.52	6.92	11.6	11.1	9.91	2.82	2.94		4.17	3	6.63	2.98	4.32	4.57	3.35	3.3
O=c1cc2n(c(=O)[nH]1)C1OC(C(O)C1O)[C@H]2CCO (some centres undefined)			> 100	> 100	> 100	> 100	> 100		> 100						> 100					
O=C(CCc1nnc(-c2c(Cl)cccc2Cl)o1)c1nc2ccccc2[nH]1	31.5	24.8	> 100	> 100	52.6	39.8	15.8	23.3	19.3	5.63	16.4	5.48	13			4.03	1.77	3.61	2.23	5.86
O=C(Nc1ncc(Cc2ccccc2)s1)c1ccc2c(c1)OCCO2		1.01		> 100	> 100	> 74.3	> 100	> 100	> 100	0.0336	0.154	0.133	0.042	0.0251		0.0546	1.35	0.0587	0.0416	
